Among the data in patent US11078204B2, “Heterocyclic derivatives as PI3K inhibitors” (Incyte Corporation, priority 2018, dated 2021) are IC50 values, retold here.

In test [1] the target is PI3Kγ (p110γ) Recombinant Human Protein (Homo sapiens (Human), UniProt P48736). Nature of the test: PI3K-γ Scintillation Proximity Assay. It is filed as biochemical. The following applies: 20 μM PIP2, 2 μM ATP, 13 nM PI3Kγ, 120 min. In a few lines:
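Recombinant human p110γ (13 nM) phosphorylated 20 μM PIP2 with 2 μM ATP plus 0.5 μCi [γ-33P]ATP for 120 min at room temperature in 20 mM MOPS pH 6.7, 10 mM MgCl2, 5 mM DTT, 0.03% CHAPS, 2% DMSO. Product was captured on WGA SPA beads in EDTA quench and counted. IC50 was fitted from percent of solvent-control activity.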
Background: Scintillation proximity formats need no separation of bound from free tracer.

For test [2], the target named is PI3Kδ (p110δ/p85α) Recombinant Human Protein (Homo sapiens (Human), UniProt O00329). Nature of the test: PI3Kδ Scintillation Proximity Assay. The test is classed as biochemical. The following applies: 20 μM PIP2, 2 μM ATP, 3.4 nM PI3Kδ, 120 min. In a few lines: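 Recombinant p110δ/p85α (3.4 nM) with 20 μM PIP2, 2 μM ATP plus [γ-^33P]ATP, in 20 mM MOPS pH 6.7, 10 mM MgCl2, 5 mM DTT, 0.03% CHAPS, 2% DMSO; 120 min at room temperature. EDTA quench, WGA SPA beads, scintillation counting. IC50 from percent of solvent-control activity versus log concentration.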
PI3Kδ (p110δ/p85α) Recombinant Human Protein, sequence (O00329 whole entry): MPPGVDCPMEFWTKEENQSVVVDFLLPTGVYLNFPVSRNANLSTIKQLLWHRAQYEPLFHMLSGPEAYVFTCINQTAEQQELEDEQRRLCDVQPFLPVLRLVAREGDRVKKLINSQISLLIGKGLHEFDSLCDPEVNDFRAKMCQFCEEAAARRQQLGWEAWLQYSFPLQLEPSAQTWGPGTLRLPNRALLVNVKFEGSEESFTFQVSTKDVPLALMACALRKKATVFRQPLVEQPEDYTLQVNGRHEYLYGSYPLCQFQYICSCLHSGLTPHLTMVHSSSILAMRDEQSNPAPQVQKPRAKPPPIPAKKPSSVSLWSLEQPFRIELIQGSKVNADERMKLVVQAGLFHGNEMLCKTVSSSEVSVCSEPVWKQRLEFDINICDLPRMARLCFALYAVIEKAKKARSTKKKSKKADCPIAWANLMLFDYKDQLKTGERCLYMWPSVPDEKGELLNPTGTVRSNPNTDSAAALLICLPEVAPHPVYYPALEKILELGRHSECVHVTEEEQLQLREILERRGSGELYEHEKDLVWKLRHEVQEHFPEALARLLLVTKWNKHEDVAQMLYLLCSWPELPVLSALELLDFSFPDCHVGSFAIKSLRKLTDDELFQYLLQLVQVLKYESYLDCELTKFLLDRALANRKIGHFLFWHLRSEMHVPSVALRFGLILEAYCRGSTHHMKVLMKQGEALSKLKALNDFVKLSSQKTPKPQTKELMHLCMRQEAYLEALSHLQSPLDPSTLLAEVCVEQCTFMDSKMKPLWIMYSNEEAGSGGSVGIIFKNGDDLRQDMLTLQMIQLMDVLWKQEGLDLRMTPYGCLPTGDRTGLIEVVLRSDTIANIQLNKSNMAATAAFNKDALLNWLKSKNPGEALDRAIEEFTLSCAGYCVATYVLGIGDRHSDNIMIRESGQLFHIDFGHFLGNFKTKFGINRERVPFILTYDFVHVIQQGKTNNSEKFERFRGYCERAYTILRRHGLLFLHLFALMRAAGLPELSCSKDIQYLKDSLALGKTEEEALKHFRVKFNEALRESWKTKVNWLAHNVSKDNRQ
PI3Kδ (p110δ/p85α) Recombinant Human Protein, sequence (P27986 whole entry partner): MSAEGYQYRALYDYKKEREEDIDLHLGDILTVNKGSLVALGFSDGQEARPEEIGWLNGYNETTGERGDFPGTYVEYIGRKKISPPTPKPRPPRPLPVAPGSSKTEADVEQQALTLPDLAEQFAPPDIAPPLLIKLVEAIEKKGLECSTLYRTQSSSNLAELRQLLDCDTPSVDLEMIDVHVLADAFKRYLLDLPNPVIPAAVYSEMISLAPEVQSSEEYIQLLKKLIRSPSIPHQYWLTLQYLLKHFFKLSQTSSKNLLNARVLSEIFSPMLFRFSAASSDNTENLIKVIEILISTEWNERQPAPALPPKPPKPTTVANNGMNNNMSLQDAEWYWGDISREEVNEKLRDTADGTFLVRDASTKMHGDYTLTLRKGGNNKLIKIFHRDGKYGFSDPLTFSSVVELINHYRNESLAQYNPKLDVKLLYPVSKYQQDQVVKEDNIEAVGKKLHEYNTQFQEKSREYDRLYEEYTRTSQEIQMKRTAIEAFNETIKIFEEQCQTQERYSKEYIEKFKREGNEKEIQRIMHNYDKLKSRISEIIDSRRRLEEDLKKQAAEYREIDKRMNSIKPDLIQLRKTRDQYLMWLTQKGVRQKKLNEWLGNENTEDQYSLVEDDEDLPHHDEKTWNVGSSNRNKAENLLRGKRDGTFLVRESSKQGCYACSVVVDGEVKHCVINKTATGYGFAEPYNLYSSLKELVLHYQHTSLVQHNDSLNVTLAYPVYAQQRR

The test system of test [3] is Phosphorylated Ribosomal Protein S6 (RPS6) in THP-1 cells. Kind of test: THP-1 RPS6 ELISA Assay. The test is classed as cell-based. The conditions noted are these: Homo sapiens, 2 hours compound, 10 nM MCP-1 for 15 minutes, Phospho-RPS6 ELISA, read-out: PI3Kγ_THP1_RPS6_ELISA IC50. The procedure:
Example A. THP-1 RPS6 ELISA Assay To measure the Phosphorylated Ribosomal Protein S6 (RPS6) in cell lysates, THP-1 cells (Human Acute Monocytic Leukemia) are purchased from ATCC (Manassas, Va.) and maintained in RPMI with 10% FBS (Gibco/Life Technologies, Carlsbad, Calif.). For the assay, THP-1 cells are serum starved overnight in RPMI, then plated in RPMI (2×10^5 cells/well in 90 μL) into 96-well flat-bottom tissue culture treated plates (Corning, Corning, N.Y.), in the presence or absence of a concentration range of test compounds. Covered plates are incubated for 2 hours at 37° C., 5% CO2 then treated with or without 10 nM MCP-1 (MYBioSource, San Diego, Calif.) for 15 minutes at 37° C., 5% CO2. Plates are centrifuged at 1600 RPM and supernatants are removed. Cells are lysed in Lysis Buffer (Cell Signaling, Danvers, Mass.) with Protease Inhibitor (Calbiochem/EMD, Germany), PMSF (Sigma, St Louis Mo.), HALTS (Thermo Fisher, Rockford, Ill.) for 30 min on wet ice. Cell lysates are frozen at −80° C. before testing. The lysates are tested in the Human/Mouse/Rat Phospho-RPS6 ELISA (R&D Systems, Inc. Minn, Minn.). The plate is measured using a microplate reader (SpectraMax M5-Molecular Devices, LLC Sunnyvale, Calif.) set to 450 nm with a wavelength correction of 540. IC50 determination is performed by fitting the curve of inhibitor percent inhibition versus the log of the inhibitor concentration using the GraphPad Prism 5.0 software.
In general terms: An ELISA detects its analyte on a solid surface through an enzyme-linked reagent.

Counter-ions that a name gives are not always drawn.

PI3Kγ (p110γ) Recombinant Human Protein, sequence (P48736 whole entry): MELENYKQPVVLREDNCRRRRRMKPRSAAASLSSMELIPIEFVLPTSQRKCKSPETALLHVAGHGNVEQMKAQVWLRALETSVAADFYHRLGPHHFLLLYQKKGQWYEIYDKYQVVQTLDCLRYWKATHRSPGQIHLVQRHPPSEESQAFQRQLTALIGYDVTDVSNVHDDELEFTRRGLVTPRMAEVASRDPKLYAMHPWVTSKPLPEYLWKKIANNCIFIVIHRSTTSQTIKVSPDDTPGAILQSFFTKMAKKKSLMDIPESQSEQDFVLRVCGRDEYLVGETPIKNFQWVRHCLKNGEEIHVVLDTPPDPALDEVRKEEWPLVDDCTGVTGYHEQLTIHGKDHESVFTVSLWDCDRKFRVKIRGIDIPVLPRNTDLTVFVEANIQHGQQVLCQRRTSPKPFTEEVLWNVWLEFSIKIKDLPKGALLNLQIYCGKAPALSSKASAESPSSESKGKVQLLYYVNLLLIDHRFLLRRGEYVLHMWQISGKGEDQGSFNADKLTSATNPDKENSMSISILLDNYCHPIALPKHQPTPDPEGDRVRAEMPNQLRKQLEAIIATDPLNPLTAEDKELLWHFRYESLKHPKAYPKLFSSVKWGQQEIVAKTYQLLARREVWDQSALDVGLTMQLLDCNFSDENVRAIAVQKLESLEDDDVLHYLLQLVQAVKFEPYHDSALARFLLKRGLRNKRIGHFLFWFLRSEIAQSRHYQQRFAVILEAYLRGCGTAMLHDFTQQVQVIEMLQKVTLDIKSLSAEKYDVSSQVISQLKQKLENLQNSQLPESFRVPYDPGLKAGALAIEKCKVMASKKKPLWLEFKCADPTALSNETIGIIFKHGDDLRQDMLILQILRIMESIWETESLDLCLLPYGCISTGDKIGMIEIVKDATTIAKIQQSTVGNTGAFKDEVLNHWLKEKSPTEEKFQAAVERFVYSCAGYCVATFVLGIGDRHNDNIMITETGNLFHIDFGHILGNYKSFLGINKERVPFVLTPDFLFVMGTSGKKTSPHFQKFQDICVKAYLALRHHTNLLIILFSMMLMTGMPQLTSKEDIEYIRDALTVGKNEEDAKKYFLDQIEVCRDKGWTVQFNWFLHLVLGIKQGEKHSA

In general, IC50 refers to the point on the concentration scale where inhibition reaches its midpoint. With `Cc1[nH]ncc1-c1cn2c(-c3cc4c(c(S(C)(=O)=O)c3)C(=O)N([C@@H](C)C3CC3)C4)cnc2c(N)n1` [Example 37, (S)-5-(8-Amino-6-(5-methyl-1H-pyrazol-4-yl)imidazo[1,2-a]pyrazin-3-yl)-2-(1-cyclopropylethyl)-7-(methylsulfonyl)isoindolin-1-one, trifluoroacetate salt], the IC50 was at most 0.1 µM in test [1], at most 0.5 µM in test [2] and under 1 µM in test [3].
Take `C[C@@H](C1CC1)N1Cc2cc(-c3cnc4c(N)ncnn34)ccc2C1=O` [Example 6, (S)-5-(4-Aminoimidazo[2,1-f][1,2,4]triazin-7-yl)-2-(1-cyclopropylethyl)isoindolin-1-one]: the IC50 was at most 0.1 µM in test [1], at least 2 µM in test [2] and at least 1 µM in test [3].
As to `Cc1cc(-c2cnc3c(N)ncnn23)cc2cn(C(C)C3CC3)nc12` (racemic) [Example 18, 7-(2-(1-Cyclopropylethyl)-7-methyl-2H-indazol-5-yl)imidazo[2,1-f][1,2,4]triazin-4-amine trifluoroacetate salt], the values for the IC50 in test [1], in test [2] and in test [3] were at most 0.1 µM, at least 2 µM and at least 1 µM, respectively.
Take `C[C@@H](C1CC1)N1Cc2cc(-c3cnc4c(N)ncnn34)cc(Cl)c2C1=O` [Example 7, (S)-5-(4-Aminoimidazo[2,1-f][1,2,4]triazin-7-yl)-7-chloro-2-(1-cyclopropylethyl)isoindolin-1-one]: the IC50 in test [1] is at most 0.1 µM; in test [2] it was at most 0.5 µM; in test [3], at least 1 µM.
In the case of `CC(C)N1Cc2cc(-c3cnc4c(N)nc(C(F)(F)F)cn34)ccc2C1=O` [Example 13, 5-(8-Amino-6-(trifluoromethyl)imidazo[l,2-a]pyrazin-3-yl)-2-isopropylisoindolin-1-one trifluoroacetate salt], the IC50 in test [1] was at most 0.1 µM; in test [2], at least 2 µM; in test [3], at least 1 µM.
As for `CC(C)N1Cc2cc(-c3cnc4c(N)ncnn34)ccc2C1=O` [Example 14, 5-(4-Aminoimidazo[2,1-f][1,2,4]triazin-7-yl)-2-isopropylisoindolin-1-one trifluoroacetate salt], the results for the IC50 in test [1], in test [2] and in test [3] were at most 0.1 µM, at least 2 µM and at least 1 µM, respectively.
For `C[C@@H](C1CC1)N1Cc2cc(-c3cnc4c(N)nc(C(F)(F)F)cn34)cc(S(C)(=O)=O)c2C1=O` [Example 3, (S)-5-(8-Amino-6-(trifluoromethyl)imidazo[1,2-a]pyrazin-3-yl)-2-(1-cyclopropylethyl)-7-(methylsulfonyl)isoindolin-1-one], the IC50 in test [1] was at most 0.1 µM; in test [2], under 2 µM; in test [3] it was at least 1 µM.
For `CC(C)NC(=O)c1cn2c(-c3cc4c(c(S(C)(=O)=O)c3)C(=O)N([C@@H](C)C3CC3)C4)cnc2c(N)n1` (single isomer, unassigned) [Example 28, trifluoroacetate salt], in that order: at most 0.1 µM, at most 0.5 µM and at most 0.5 µM.
